Experiments:
Calu-1 cells = test: Anti-proliferation (viability) of NSCLC Calu-1 cells, 3 days (Table 7, FIG. 2B); format: cell-based; conditions: Homo sapiens, 72 h; Calu-1 cells, 3 days, 10-point serial dilution; read-out: GI IC50 in Calu-1
Procedure, shortened: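 Viability is read after treatment with compounds titrated over ten serial dilution points, with exposure lasting three days for the NSCLC line and six days for the breast cancer line.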

MCF7 cells = test: Anti-proliferation (viability) of MCF7 cells (Table 7, FIG. 2B); format: cell-based; conditions: Homo sapiens, MCF7, MCF7 cells, 3-6 days, 10-point serial dilution; read-out: GI IC50 in MCF-7

IC50 (Calu-1 cells) [nM] | IC50 (MCF7 cells) [nM] | SMILES
≤ 10 | < 50 | CC(=O)c1c(C)c2cnc(Nc3ccc(CN4CCN(C(=O)CN5CCC(Nc6nc(NC(C)C)ccc6C(=O)Nc6ccc(N(C)C)nn6)CC5)CC4)cn3)nc2n(C2CCCC2)c1=O [CPD-541, 2-((1-(2-(4-((6-((6-acetyl-8-cyclopentyl-5-methyl-7-oxo-7,8-dihydropyrido[2,3-d]pyrimidin-2-yl)amino)pyridin-3-yl)methyl)piperazin-1-yl)-2-oxoethyl)piperidin-4-yl)amino)-N-(6-(dimethylamino)pyridazin-3-yl)-6-(isopropylamino)nicotinamide]
≤ 10 | < 50 | [2H]C([2H])([2H])Nc1ccc(C(=O)Nc2ccc(N(C)C)nn2)c(NC2CC3(C2)CN(C(=O)CN(C)C2CCN(c4ccc(Nc5ncc6c(C)c(C(C)=O)c(=O)n(C7CCCC7)c6n5)nc4)CC2)C3)n1 [CPD-464, 2-((2-(N-(1-(6-((6-acetyl-8-cyclopentyl-5-methyl-7-oxo-7,8-dihydropyrido[2,3-d]pyrimidin-2-yl)amino)pyridin-3-yl)piperidin-4-yl)-N-methylglycyl)-2-azaspiro[3.3]heptan-6-yl)amino)-N-(6-(dimethylamino)pyridazin-3-yl)-6-((methyl-d3)amino)nicotinamide]
≤ 10 | > 100 | CC(=O)c1c(C)c2cnc(Nc3ccc(N4CCN(C5CCN(C(=O)NC6CC7(C6)CC(Nc6nc(NC(C)C)ccc6C(=O)Nc6ccc(N(C)C)nn6)C7)C5)CC4)cn3)nc2n(C2CCCC2)c1=O (stereo not drawn) [CPD-470, 2-((6-(3-(4-(6-((6-acetyl-8-cyclopentyl-5-methyl-7-oxo-7,8-dihydropyrido[2,3-d]pyrimidin-2-yl)amino)pyridin-3-yl)piperazin-1-yl)pyrrolidine-1-carboxamido)spiro[3.3]heptan-2-yl)amino)-N-(6-(dimethylamino)pyridazin-3-yl)-6-(isopropylamino)nicotinamide]
10 to 50 | > 100 | CC(=O)c1c(C)c2cnc(Nc3ccc(N4CCN(CC(=O)N5CCC(Nc6nc(NC(C)C)ccc6C(=O)Nc6cn(C)c(C7CC7)n6)CC5)CC4)cn3)nc2n(C2CCCC2)c1=O [CPD-279, 2-((1-(2-(4-(6-((6-acetyl-8-cyclopentyl-5-methyl-7-oxo-7,8-dihydropyrido[2,3-d]pyrimidin-2-yl)amino)pyridin-3-yl)piperazin-1-yl)acetyl)piperidin-4-yl)amino)-N-(2-cyclopropyl-1-methyl-1H-imidazol-4-yl)-6-(isopropylamino)nicotinamide]
10 to 50 | > 100 | [2H]C([2H])([2H])Nc1ccc(C(=O)Nc2cn(C)c(C3CC3)n2)c(NC2CC(CNC(=O)CN3CCN(c4ccc(Nc5ncc6c(C)c(C(C)=O)c(=O)n(C7CCCC7)c6n5)nc4)CC3)C2)n1 (stereo not drawn) [CPD-278, 2-((3-((2-(4-(6-((6-acetyl-8-cyclopentyl-5-methyl-7-oxo-7,8-dihydropyrido[2,3-d]pyrimidin-2-yl)amino)pyridin-3-yl)piperazin-1-yl)acetamido)methyl)cyclobutyl)amino)-N-(2-cyclopropyl-1-methyl-1H-imidazol-4-yl)-6-((methyl-d3)amino)nicotinamide]
≤ 10 | < 50 | [2H]C([2H])([2H])Nc1ccc(C(=O)Nc2ccc(N(C)C)nn2)c(NC2CC3(C2)CN(C(=O)CN2CCN(C(C)c4ccc(Nc5ncc6c(C)c(C(C)=O)c(=O)n(C7CCCC7)c6n5)nc4)CC2)C3)n1 (stereo not drawn) [CPD-488, 2-((2-(2-(4-(1-(6-((6-acetyl-8-cyclopentyl-5-methyl-7-oxo-7,8-dihydropyrido[2,3-d]pyrimidin-2-yl)amino)pyridin-3-yl)ethyl)piperazin-1-yl)acetyl)-2-azaspiro[3.3]heptan-6-yl)amino)-N-(6-(dimethylamino)pyridazin-3-yl)-6-((methyl-d3)amino)nicotinamide]
≥ 50 | > 100 | [2H]C([2H])([2H])Nc1ccc(C(=O)Nc2cn3c(n2)CCC3)c(N[C@H]2CC[C@H](C(=O)N3CCC(N4CCN(c5ccc(Nc6ncc7c(C)c(C(C)=O)c(=O)n(C8CCCC8)c7n6)nc5)CC4)C3)CC2)n1 (stereo partly drawn) [CPD-569, 2-((trans-4-(3-(4-(6-((6-acetyl-8-cyclopentyl-5-methyl-7-oxo-7,8-dihydropyrido[2,3-d]pyrimidin-2-yl)amino)pyridin-3-yl)piperazin-1-yl)pyrrolidine-1-carbonyl)cyclohexyl)amino)-N-(6,7-dihydro-5H-pyrrolo[1,2-a]imidazol-2-yl)-6-((methyl-d3)amino)nicotinamide]
10 to 50 | > 100 | CC(=O)c1c(C)c2cnc(Nc3ccc(N4CCC(N5CCC(C(=O)NC6CCC(Nc7nc(NC(C)C)ccc7C(=O)Nc7ccc(N(C)C)nn7)CC6)C5)CC4)cn3)nc2n(C2CCCC2)c1=O (stereo not drawn) [CPD-462, 2-((4-(1-(1-(6-((6-acetyl-8-cyclopentyl-5-menthyl-7-oxo-7,8-dihydropyrido[2,3-d]pyrimidin-2-yl)amino)pyridin-3-yl)piperidin-4-yl)pyrrolidine-3-carboxamido)cyclohexyl)amino)-N-(6-(dimethylamino)pyridazin-3-yl)-6-(isopropylamino)nicotinamide]
≤ 10 | > 100 | CC(=O)c1c(C)c2cnc(Nc3ccc(N4CCN(CC(=O)NC5CCC(Nc6nc(NC(C)C)ccc6C(=O)Nc6cn(C)c(C7CC7)n6)C5)CC4)cn3)nc2n(C2CCCC2)c1=O (stereo not drawn) [CPD-284, 2-((3-(2-(4-(6-((6-acetyl-8-cyclopentyl-5-methyl-7-oxo-7,8-dihydropyrido[2,3-d]pyrimidin-2-yl)amino)pyridin-3-yl)piperazin-1-yl)acetamido)cyclopentyl)amino)-N-(2-cyclopropyl-1-methyl-1H-imidazol-4-yl)-6-(isopropylamino)nicotinamide]
≤ 10 | 50 to 100 | COc1cccc(NC(=O)c2ccc(NC(C)C)nc2NC2CCN(C(=O)CN3CCN(Cc4ccc(Nc5ncc6c(C)c(C(C)=O)c(=O)n(C7CCCC7)c6n5)nc4)CC3)CC2)n1 [CPD-533]
≥ 50 | > 100 | CC(=O)c1c(C)c2cnc(Nc3ccc(N4CCN(CC(=O)N[C@H]5CC[C@H](CNc6nc(NC(C)C)ccc6C(=O)Nc6cn(C)c(C7CC7)n6)CC5)CC4)cn3)nc2n(C2CCCC2)c1=O [CPD-275, 2-(((trans-4-(2-(4-(6-((6-acetyl-8-cyclopentyl-5-methyl-7-oxo-7,8-dihydropyrido[2,3-d]pyrimidin-2-yl)amino)pyridin-3-yl)piperazin-1-yl)acetamido)cyclohexyl)methyl)amino)-N-(2-cyclopropyl-1-methyl-1H-imidazol-4-yl)-6-(isopropylamino)nicotinamide]
≥ 50 | > 100 | CC(=O)c1c(C)c2cnc(Nc3ccc(N4CCN(CC(=O)NC5CC6(C5)CC(Nc5cc(C)ccc5C(=O)Nc5cc(C)on5)C6)CC4)cn3)nc2n(C2CCCC2)c1=O (stereo not drawn) [CPD-286, 2-((6-(2-(4-(6-((6-acetyl-8-cyclopentyl-5-methyl-7-oxo-7,8-dihydropyrido[2,3-d]pyrimidin-2-yl)amino)pyridin-3-yl)piperazin-1-yl)acetamido)spiro[3.3]heptan-2-yl)amino)-4-methyl-N-(5-methylisoxazol-3-yl)benzamide]

From US20260297081A1, “COMPOUNDS AND METHODS OF TREATING CANCERS” (Cullgen Inc., priority 2023, published 2026)
